Measurements published in ChEMBL document CHEMBL5331086, “Natural product evodiamine-inspired medicinal chemistry: Anticancer activity, structural optimization and structure-activity relationship” (Eur J Med Chem, 2023).
≈ marks a conversion by molar mass, not a printed value.

Assays:
HCT-116 [1] = assay: Antiproliferative activity against human HCT-116 cells assessed as reduction in cell viability incubated for 48 hrs by CCK-8 assay; assay type: functional, cell-based; conditions: HCT-116, 48 h
A549 [2] = assay: Cytotoxicity against human A549 cells assessed as reduction in cell viability measured after 72 hrs by MTT assay; assay type: functional, cell-based; conditions: A549, 72 h
HCT-116 [3] = assay: Cytotoxicity against human HCT-116 cells assessed as reduction in cell viability incubated for 72 hrs by MTT assay; assay type: functional, cell-based; conditions: HCT-116, 72 h
MDA-MB-435 [4] = assay: Cytotoxicity against human MDA-MB-435 cells assessed as reduction in cell viability incubated for 72 hrs by MTT assay; assay type: functional, cell-based; conditions: MDA-MB-435, 72 h
Huh-7 = assay: Antiproliferative activity against human Huh-7 cells assessed as reduction in cell viability incubated for 48 hrs by CCK-8 assay; assay type: functional, cell-based; conditions: Huh-7, 48 h
HepG2 [5] = assay: Antiproliferative activity against human HepG2 cells assessed as reduction in cell viability incubated for 48 hrs by CCK-8 assay; assay type: functional, cell-based; conditions: HepG2, 48 h
HCCLM9 = assay: Antiproliferative activity against human HCCLM9 cells assessed as reduction in cell growth incubated for 48 hrs by CCK-8 assay; assay type: functional, cell-based; conditions: HCCLM9, 48 h
HCT-116 [6] = assay: Antiproliferative activity against human HCT-116 cells; assay type: functional, cell-based
MDA-MB-435 [7] = assay: Antiproliferative activity against human MDA-MB-435 cells; assay type: functional, cell-based
[8] = Solubility of compound in water; assay type: physicochemical
A549 [9] = assay: Antiproliferative activity against human A549 cells; assay type: functional, cell-based
Histone deacetylase 1 = Histone deacetylase 1 (Homo sapiens, UniProt Q13547); assay: Inhibition of HDAC1 (unknown origin)
Chain of Histone deacetylase 1 (Q13547 whole entry): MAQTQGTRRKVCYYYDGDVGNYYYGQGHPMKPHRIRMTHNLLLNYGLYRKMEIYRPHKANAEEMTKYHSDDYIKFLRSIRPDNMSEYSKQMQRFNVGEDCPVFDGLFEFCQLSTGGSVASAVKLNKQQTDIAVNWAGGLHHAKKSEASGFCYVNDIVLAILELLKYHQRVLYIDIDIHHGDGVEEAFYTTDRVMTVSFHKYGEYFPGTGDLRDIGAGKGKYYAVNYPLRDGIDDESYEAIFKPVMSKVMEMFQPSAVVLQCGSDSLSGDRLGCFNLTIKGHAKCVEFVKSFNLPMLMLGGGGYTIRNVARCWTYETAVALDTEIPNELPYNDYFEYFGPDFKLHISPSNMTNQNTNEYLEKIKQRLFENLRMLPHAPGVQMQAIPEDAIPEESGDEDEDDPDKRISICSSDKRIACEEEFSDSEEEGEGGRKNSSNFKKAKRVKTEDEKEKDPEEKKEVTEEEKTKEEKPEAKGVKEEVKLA

Histone deacetylase 2 = Histone deacetylase 2 (Homo sapiens, UniProt Q92769); assay: Inhibition of HDAC2 (unknown origin)
Chain of Histone deacetylase 2 (Q92769 whole entry): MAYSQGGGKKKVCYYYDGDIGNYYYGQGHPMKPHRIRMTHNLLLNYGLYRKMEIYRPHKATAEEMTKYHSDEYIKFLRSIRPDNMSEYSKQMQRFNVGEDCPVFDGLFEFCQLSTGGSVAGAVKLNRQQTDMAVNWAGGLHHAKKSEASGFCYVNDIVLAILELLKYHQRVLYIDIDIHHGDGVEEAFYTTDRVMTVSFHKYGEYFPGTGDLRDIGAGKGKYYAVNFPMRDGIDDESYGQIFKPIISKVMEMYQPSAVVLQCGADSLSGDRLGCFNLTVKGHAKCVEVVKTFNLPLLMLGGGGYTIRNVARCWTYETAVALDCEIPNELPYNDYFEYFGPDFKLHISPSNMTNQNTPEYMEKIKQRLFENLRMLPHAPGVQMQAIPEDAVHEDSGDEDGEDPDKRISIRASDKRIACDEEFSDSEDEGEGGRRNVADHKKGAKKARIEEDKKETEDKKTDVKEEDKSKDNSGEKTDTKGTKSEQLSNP

MCF7 [10] = assay: Antiproliferative activity against human MCF7 cells assessed as reduction in cell viability incubated for 48 hrs by MTT assay; assay type: functional, cell-based; conditions: MCF7, 48 h
[11] = Solubility of compound in water incubated for 24 hrs by HPLC-UV analysis; assay type: physicochemical
HCT-116 [12] = assay: Cytotoxicity against human HCT-116 cells assessed as reduction in cell viability measured after 24 hrs by MTT assay; assay type: functional, cell-based; conditions: HCT-116, 24 h
A549 [13] = assay: Cytotoxicity against human A549 cells assessed as reduction in cell viability measured after 24 hrs by MTT assay; assay type: functional, cell-based; conditions: A549, 24 h
MDA-MB-435 [14] = assay: Cytotoxicity against human MDA-MB-435 cells assessed as reduction in cell viability measured after 24 hrs by MTT assay; assay type: functional, cell-based; conditions: MDA-MB-435, 24 h
HepG2 [15] = assay: Antiproliferative activity against human HepG2 cells assessed as reduction in cell viability incubated for 24 hrs by MTT assay; assay type: functional, cell-based; conditions: HepG2, 24 h
MCF7 [16] = assay: Antiproliferative activity against human MCF7 cells assessed as reduction in cell viability incubated for 24 hrs by MTT assay; assay type: functional, cell-based; conditions: MCF7, 24 h
MCF7 [17] = assay: Antiproliferative activity against human MCF7 cells; assay type: functional, cell-based
[18] = Antiproliferative activity against human HUVEC cells; assay type: toxicity, cell-based
HCT-116 [19] = assay: Antiproliferative activity against human HCT-116 cells assessed as reduction in cell viability incubated for 48 hrs by MTT assay; assay type: functional, cell-based; conditions: HCT-116, 48 h
A549 [20] = assay: Antiproliferative activity against human A549 cells assessed as reduction in cell viability incubated for 48 hrs by MTT assay; assay type: functional, cell-based; conditions: A549, 48 h
A549 [21] = assay: Cytotoxicity against human A549 cells assessed as reduction in cell viability incubated for 72 hrs by MTT assay; assay type: functional, cell-based; conditions: A549, 72 h
PC-3 = assay: Cytotoxicity against human PC-3 cells assessed as reduction in cell viability measured after 72 hrs by MTT assay; assay type: functional, cell-based; conditions: PC-3, 72 h
MCF7 [22] = assay: Cytotoxicity against human MCF7 cells assessed as reduction in cell viability measured after 72 hrs by MTT assay; assay type: functional, cell-based; conditions: MCF7, 72 h
PC-9 = assay: Cytotoxicity against human PC-9 cells assessed as reduction in cell viability incubated for 72 hrs by MTT assay; assay type: functional, cell-based; conditions: PC-9, 72 h
MDA-MB-231 = assay: Antiproliferative activity against human MDA-MB-231 cells assessed as reduction in cell viability incubated for 48 hrs by CCK-8 assay; assay type: functional, cell-based; conditions: MDA-MB-231, 48 h
SW-620 = assay: Cytotoxicity against human SW-620 cells assessed as reduction in cell viability incubated for 48 hrs by CCK-8 assay; assay type: functional, cell-based; conditions: SW-620, 48 h
HGC-27 = assay: Antiproliferative activity against human HGC-27 cells assessed as reduction in cell viability measured after 48 hrs by MTT assay; assay type: functional, cell-based; conditions: HGC-27, 48 h
MCF7 [23] = assay: Cytotoxicity against human MCF7 cells assessed as reduction in cell viability incubated for 48 hrs by MTT assay; assay type: functional, cell-based; conditions: MCF7, 48 h
NCI-H460 = assay: Cytotoxicity against human NCI-H460 cells assessed as reduction in cell viability incubated for 48 hrs by MTT assay; assay type: functional, cell-based; conditions: NCI-H460, 48 h
SF-268 = assay: Cytotoxicity against human SF-268 cells assessed as reduction in cell viability incubated for 48 hrs by MTT assay; assay type: functional, cell-based; conditions: SF-268, 48 h
HCT-15 = assay: Cytotoxicity against human HCT-15 cells assessed as reduction in cell viability incubated for 48 hrs by MTT assay; assay type: functional, cell-based; conditions: HCT-15, 48 h
DU-145 = assay: Cytotoxicity against human DU-145 cells assessed as cell growth inhibition measured after 48 hrs by MTT assay; assay type: functional, cell-based; conditions: DU-145, 48 h

CN1c2ccccc2C(=O)N2[C@H](C(=O)Nc3ccc(C(=O)Nc4ccccc4N)cc3)Cc3c([nH]c4ccccc34)[C@@H]12
IC50 (HCT-116 [1]): 1600 nM

CN1c2ccc(NC(=O)CBr)cc2C(=O)N2CCc3c([nH]c4ccccc34)C21 (configuration not stated)
IC50 (A549 [2]): 154000 nM
IC50 (HCT-116 [3]): 28000 nM
IC50 (MDA-MB-435 [4]): 22700 nM

O=C1c2ccccc2N(c2ccccc2)C2c3[nH]c4ccccc4c3CCN12 (configuration not stated)
IC50 (Huh-7): 740 nM
IC50 (HepG2 [5]): 2390 nM
IC50 (HCCLM9): 9820 nM

CN1c2ccccc2C(=O)N2CCc3c([nH]c4ccc(O)cc34)C21 (configuration not stated)
IC50 (HCT-116 [6]): < 3 nM
IC50 (MDA-MB-435 [7]): < 3 nM
solubility [8]: 11 µg/mL (≈ 34.4 µM)
IC50 (A549 [9]): < 3 nM

CN1c2ccc(NCC3CCN(c4ncc(C(=O)NO)cn4)CC3)cc2C(=O)N2CCc3c([nH]c4ccc(O)cc34)C21 (configuration not stated)
IC50 (HCT-116 [6]): 230 nM
IC50 (Histone deacetylase 1): 4 nM
IC50 (Histone deacetylase 2): 5 nM

CN1c2ccccc2C(=O)N2CCc3c([nH]c4ccc(N)cc34)C21 (configuration not stated)
IC50 (MCF7 [10]): 1800 nM
solubility at 24 h [11]: 10 µg/mL (≈ 31.4 µM)

CN1c2ccccc2C(=O)N2CCc3c(n(C(=O)c4ccc(Cl)cc4)c4ccc(O)cc34)C21 (configuration not stated)
IC50 (HCT-116 [12]): 50 nM
IC50 (A549 [13]): 26600 nM
IC50 (MDA-MB-435 [14]): < 2 nM

CN1c2ccccc2C(=O)N2CCc3c(n(S(=O)(=O)c4ccc([N+](=O)[O-])cc4)c4ccccc34)C21 (configuration not stated)
IC50 (HepG2 [15]): 18400 nM
IC50 (MCF7 [16]): 2680 nM

CN1c2ccccc2C(=O)N2CCc3c([nH]c4ccc(OC(=O)CCC(=O)Oc5ccc6[nH]c7c(c6c5)CCN5C(=O)c6ccccc6N(C)C75)cc34)C21 (configuration not stated)
IC50 (HCT-116 [6]): 32 nM
IC50 (MCF7 [17]): 890 nM
IC50 (A549 [9]): 680 nM
IC50 [18]: 210 nM

CN1c2ccccc2C(=O)N2CCc3c([nH]c4c([N+](=O)[O-])cc([N+](=O)[O-])cc34)C21 (configuration not stated)
IC50 (MDA-MB-435 [7]): > 200000 nM
IC50 (HCT-116 [19]): < 200000 nM
IC50 (A549 [20]): > 200000 nM

CN1c2ccc(NCc3ccc(/C=C/C(=O)NO)cc3)cc2C(=O)N2CCc3c([nH]c4ccc(O)cc34)C21 (configuration not stated)
IC50 (HCT-116 [6]): 180 nM
IC50 (Histone deacetylase 1): 18 nM
IC50 (Histone deacetylase 2): 230 nM

CN1c2ccccc2C(=O)N2CCc3c([nH]c4c(Cl)cccc34)C21 (configuration not stated)
IC50 (MDA-MB-435 [7]): < 3 nM
IC50 (HCT-116 [19]): < 3 nM
IC50 (A549 [20]): 2550 nM

CN1c2ccccc2C(=O)N2CCc3c([nH]c4ccc(NS(C)(=O)=O)cc34)C21 (configuration not stated)
IC50 (MCF7 [10]): 190 nM

CC(N)C(=O)Nc1ccc2[nH]c3c(c2c1)CCN1C(=O)c2ccccc2N(C)C31 (configuration not stated)
IC50 (MCF7 [10]): 520 nM

CN1c2ccccc2C(=O)N2CCc3c([nH]c4ccc(OC(=O)CCCC(=O)Oc5ccc6[nH]c7c(c6c5)CCN5C(=O)c6ccccc6N(C)C75)cc34)C21 (configuration not stated)
IC50 (HCT-116 [6]): 32 nM
IC50 (MCF7 [17]): 200 nM
IC50 (A549 [9]): 730 nM
IC50 [18]: 580 nM

CN1c2ccc(-c3ccnc(N4CCNCC4)c3)cc2C(=O)N2CCc3c([nH]c4ccccc34)C21 (configuration not stated)
IC50 (A549 [2]): 6800 nM
IC50 (HCT-116 [3]): 5940 nM
IC50 (MDA-MB-435 [4]): 2780 nM

Cc1cc2c(s1)N(C)C1c3[nH]c4ccccc4c3CCN1C2=O (configuration not stated)
IC50 (A549 [21]): 10400 nM
IC50 (PC-3): 7770 nM
IC50 (MCF7 [22]): 9020 nM
IC50 (PC-9): 9460 nM

Cc1ccc2[nH]c3c(c2c1)CCN1C(=O)c2ccccc2N(c2ccccc2)C31 (configuration not stated)
IC50 (Huh-7): 440 nM
IC50 (HepG2 [5]): 920 nM
IC50 (HCCLM9): 240 nM

CN1c2cc(N)ccc2C(=O)N2CCc3c([nH]c4ccccc34)C21 (configuration not stated)
IC50 (MDA-MB-231): 790 nM
IC50 (SW-620): 1280 nM

COc1ccc2c(c1)c1c(n2C(=O)c2cc(OC)c(OC)c(OC)c2)C2Oc3ccccc3C(=O)N2CC1 (configuration not stated)
IC50 (HGC-27): 6100 nM

CN1c2ccccc2C(=O)N2CCc3c([nH]c4ccccc34)C21 (configuration not stated)
IC50 (Huh-7): 780 nM
IC50 (HGC-27): 2280 nM
IC50 (HepG2 [5]): 21500 nM
IC50 (HCCLM9): 1630 nM

COCCCCn1c2c(c3ccccc31)CCN1C(=O)c3ccccc3N(C)C21 (configuration not stated)
IC50 (MCF7 [23]): < 2000 nM
IC50 (NCI-H460): < 2000 nM
IC50 (SF-268): < 2000 nM
IC50 (HCT-15): < 2000 nM
IC50 (DU-145): < 2000 nM
